# From PubChem BioAssay (NCI)
#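 Assay format: 96-well plates, 48-hour exposure. Here, GI50 denotes the concentration required for 50% inhibition of growth. TGI: concentration producing complete growth inhibition.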
# Columns and labels:
# Assay in all cases: NCI anticancer screen, dose series, 48 h
# OVCAR-4 ovarian = test system: OVCAR-4 ovarian
# HCT-15 colon = test system: HCT-15 colon
# MOLT-4 leukemia = test system: MOLT-4 leukemia
# NCI-H460 lung = test system: NCI-H460 lung
# 786-0 renal = test system: 786-0 renal
# EKVX NSCLC = test system: EKVX NSCLC
# SF-539 CNS = test system: SF-539 CNS
# MCF7 breast = test system: MCF7 breast
# HS 578T breast = test system: HS 578T breast
# SNB-19 CNS = test system: SNB-19 CNS
# UACC-257 melanoma = test system: UACC-257 melanoma
# SNB-75 CNS = test system: SNB-75 CNS
# SF-295 CNS = test system: SF-295 CNS
# HOP-62 NSCLC = test system: HOP-62 NSCLC
# KM12 colon = test system: KM12 colon
# RPMI-8226 leukemia = test system: RPMI-8226 leukemia
# MDA-MB-231 breast = test system: MDA-MB-231 breast
# NCI-H522 lung = test system: NCI-H522 lung
# DU-145 prostate = test system: DU-145 prostate
# OVCAR-5 ovarian = test system: OVCAR-5 ovarian
# RXF 393 renal = test system: RXF 393 renal
# SK-MEL-5 melanoma = test system: SK-MEL-5 melanoma
# SF-268 CNS = test system: SF-268 CNS
# BT-549 breast = test system: BT-549 breast
# UO-31 renal = test system: UO-31 renal
# IGROV1 ovarian = test system: IGROV1 ovarian
# UACC-62 melanoma = test system: UACC-62 melanoma
# M14 melanoma = test system: M14 melanoma
# T-47D breast = test system: T-47D breast
# SW-620 colon = test system: SW-620 colon
# SK-MEL-28 melanoma = test system: SK-MEL-28 melanoma
# A498 renal = test system: A498 renal
# LOX IMVI melanoma = test system: LOX IMVI melanoma
# SR leukemia = test system: SR leukemia
# NCI/ADR-RES ovarian = test system: NCI/ADR-RES ovarian
# OVCAR-3 ovarian = test system: OVCAR-3 ovarian
# TK-10 renal = test system: TK-10 renal
# OVCAR-8 ovarian = test system: OVCAR-8 ovarian
# SK-MEL-2 melanoma = test system: SK-MEL-2 melanoma
# SN12C renal = test system: SN12C renal
# HCC-2998 colon = test system: HCC-2998 colon
# ACHN renal = test system: ACHN renal
# NCI-H23 lung = test system: NCI-H23 lung
# CAKI-1 renal = test system: CAKI-1 renal
# MDA-MB-435 = test system: MDA-MB-435
# MALME-3M melanoma = test system: MALME-3M melanoma
# CCRF-CEM leukemia = test system: CCRF-CEM leukemia
# HOP-92 NSCLC = test system: HOP-92 NSCLC
# HL-60(TB) leukemia = test system: HL-60(TB) leukemia
# COLO 205 colon = test system: COLO 205 colon
# K-562 leukemia = test system: K-562 leukemia
# HT29 colon = test system: HT29 colon
# NCI-H226 lung = test system: NCI-H226 lung
# PC-3 prostate = test system: PC-3 prostate
# A549 NSCLC = test system: A549 NSCLC
# U251 CNS = test system: U251 CNS
# SK-OV-3 ovarian = test system: SK-OV-3 ovarian
smiles,measurement,setting,value
CN1CCN(CCOc2ccc(-c3cnc4c(-c5ccccc5F)cnn4c3)cc2)CC1,GI50,OVCAR-4 ovarian,1.55 µM
same,TGI,OVCAR-4 ovarian,4.49 µM
same,GI50,HCT-15 colon,1.25 µM
same,TGI,HCT-15 colon,2.63 µM
same,GI50,MOLT-4 leukemia,1.79 µM
same,TGI,MOLT-4 leukemia,4.36 µM
same,GI50,NCI-H460 lung,1.63 µM
same,TGI,NCI-H460 lung,3.05 µM
same,GI50,786-0 renal,1.78 µM
same,TGI,786-0 renal,3.29 µM
same,GI50,EKVX NSCLC,1.65 µM
same,TGI,EKVX NSCLC,3.37 µM
same,GI50,SF-539 CNS,1.59 µM
same,TGI,SF-539 CNS,2.96 µM
same,GI50,MCF7 breast,1.32 µM
same,TGI,MCF7 breast,2.97 µM
same,GI50,HS 578T breast,2 µM
same,TGI,HS 578T breast,5.22 µM
same,GI50,SNB-19 CNS,1.73 µM
same,TGI,SNB-19 CNS,3.26 µM
same,GI50,UACC-257 melanoma,1.87 µM
same,TGI,UACC-257 melanoma,3.41 µM
same,GI50,SNB-75 CNS,1.35 µM
same,TGI,SNB-75 CNS,2.66 µM
same,GI50,SF-295 CNS,1.76 µM
same,TGI,SF-295 CNS,3.2 µM
same,GI50,HOP-62 NSCLC,1.7 µM
same,TGI,HOP-62 NSCLC,3.54 µM
same,GI50,KM12 colon,0.647 µM
same,TGI,KM12 colon,2.12 µM
same,GI50,RPMI-8226 leukemia,1.57 µM
same,TGI,RPMI-8226 leukemia,5.44 µM
same,GI50,MDA-MB-231 breast,1.54 µM
same,TGI,MDA-MB-231 breast,3.08 µM
same,GI50,NCI-H522 lung,1.69 µM
same,TGI,NCI-H522 lung,3.39 µM
same,GI50,DU-145 prostate,1.65 µM
same,TGI,DU-145 prostate,3.07 µM
same,GI50,OVCAR-5 ovarian,1.72 µM
same,TGI,OVCAR-5 ovarian,3.23 µM
same,GI50,RXF 393 renal,1.72 µM
same,TGI,RXF 393 renal,3.29 µM
same,GI50,SK-MEL-5 melanoma,1.63 µM
same,TGI,SK-MEL-5 melanoma,3 µM
same,GI50,SF-268 CNS,2.04 µM
same,TGI,SF-268 CNS,4.73 µM
same,GI50,BT-549 breast,1.9 µM
same,TGI,BT-549 breast,3.77 µM
same,GI50,UO-31 renal,1.33 µM
same,TGI,UO-31 renal,2.69 µM
same,GI50,IGROV1 ovarian,1.81 µM
same,TGI,IGROV1 ovarian,3.58 µM
same,GI50,UACC-62 melanoma,1.69 µM
same,TGI,UACC-62 melanoma,3.17 µM
same,GI50,M14 melanoma,1.82 µM
same,TGI,M14 melanoma,3.52 µM
same,GI50,T-47D breast,1.38 µM
same,TGI,T-47D breast,3.93 µM
same,GI50,SW-620 colon,1.77 µM
same,TGI,SW-620 colon,3.26 µM
same,GI50,SK-MEL-28 melanoma,1.7 µM
same,TGI,SK-MEL-28 melanoma,3.07 µM
same,GI50,A498 renal,1.43 µM
same,TGI,A498 renal,2.9 µM
same,GI50,LOX IMVI melanoma,1.81 µM
same,TGI,LOX IMVI melanoma,3.27 µM
same,GI50,SR leukemia,2.59 µM
same,TGI,SR leukemia,> 100 µM
same,GI50,NCI/ADR-RES ovarian,2.4 µM
same,TGI,NCI/ADR-RES ovarian,6.42 µM
same,GI50,OVCAR-3 ovarian,1.81 µM
same,TGI,OVCAR-3 ovarian,4.02 µM
same,GI50,TK-10 renal,2.09 µM
same,TGI,TK-10 renal,3.9 µM
same,GI50,OVCAR-8 ovarian,2.92 µM
same,TGI,OVCAR-8 ovarian,10.6 µM
same,GI50,SK-MEL-2 melanoma,1.86 µM
same,TGI,SK-MEL-2 melanoma,3.57 µM
same,GI50,SN12C renal,1.78 µM
same,TGI,SN12C renal,3.6 µM
same,GI50,HCC-2998 colon,1.73 µM
same,TGI,HCC-2998 colon,3.25 µM
same,GI50,ACHN renal,1.61 µM
same,TGI,ACHN renal,2.96 µM
same,GI50,NCI-H23 lung,1.7 µM
same,TGI,NCI-H23 lung,3.19 µM
same,GI50,CAKI-1 renal,1.56 µM
same,TGI,CAKI-1 renal,2.9 µM
same,GI50,MDA-MB-435,1.7 µM
same,TGI,MDA-MB-435,3.1 µM
same,GI50,MALME-3M melanoma,1.56 µM
same,TGI,MALME-3M melanoma,2.95 µM
same,GI50,CCRF-CEM leukemia,1.85 µM
same,TGI,CCRF-CEM leukemia,4.77 µM
same,GI50,HOP-92 NSCLC,1.31 µM
same,TGI,HOP-92 NSCLC,3.15 µM
CC(C)=CC/C=C(/C)[C@H]1CC[C@]2(C)[C@@H]1CC[C@@H]1[C@@]3(C)CCCNC(C)(C)[C@@H]3CC[C@]12C,GI50,OVCAR-4 ovarian,3.33 µM
same,TGI,OVCAR-4 ovarian,11.4 µM
same,GI50,HCT-15 colon,1.89 µM
same,TGI,HCT-15 colon,3.56 µM
same,GI50,MOLT-4 leukemia,2.15 µM
same,TGI,MOLT-4 leukemia,5.93 µM
same,GI50,NCI-H460 lung,2.11 µM
same,TGI,NCI-H460 lung,4.4 µM
same,GI50,HL-60(TB) leukemia,1.8 µM
same,TGI,HL-60(TB) leukemia,3.73 µM
same,GI50,786-0 renal,2.38 µM
same,TGI,786-0 renal,6.29 µM
same,GI50,COLO 205 colon,1.8 µM
same,TGI,COLO 205 colon,3.53 µM
same,GI50,EKVX NSCLC,10.6 µM
same,TGI,EKVX NSCLC,28.4 µM
same,GI50,SF-539 CNS,2.85 µM
same,TGI,SF-539 CNS,9.13 µM
same,GI50,MCF7 breast,2 µM
same,TGI,MCF7 breast,3.92 µM
same,GI50,HS 578T breast,4.96 µM
same,TGI,HS 578T breast,22.3 µM
same,GI50,SNB-19 CNS,3.39 µM
same,TGI,SNB-19 CNS,11.6 µM
same,GI50,UACC-257 melanoma,3.05 µM
same,TGI,UACC-257 melanoma,11 µM
same,GI50,SNB-75 CNS,2.56 µM
same,TGI,SNB-75 CNS,10.8 µM
same,GI50,SF-295 CNS,2 µM
same,TGI,SF-295 CNS,3.83 µM
same,GI50,K-562 leukemia,1.79 µM
same,TGI,K-562 leukemia,5.3 µM
same,GI50,HOP-62 NSCLC,1.9 µM
same,TGI,HOP-62 NSCLC,3.9 µM
same,GI50,RPMI-8226 leukemia,2.12 µM
same,TGI,RPMI-8226 leukemia,4.97 µM
same,GI50,NCI-H522 lung,1.98 µM
same,TGI,NCI-H522 lung,4.48 µM
same,GI50,DU-145 prostate,2.08 µM
same,TGI,DU-145 prostate,4.31 µM
same,GI50,OVCAR-5 ovarian,3.86 µM
same,TGI,OVCAR-5 ovarian,15.1 µM
same,GI50,RXF 393 renal,1.72 µM
same,TGI,RXF 393 renal,3.31 µM
same,GI50,SK-MEL-5 melanoma,1.91 µM
same,TGI,SK-MEL-5 melanoma,4.3 µM
same,GI50,SF-268 CNS,3.82 µM
same,TGI,SF-268 CNS,16.7 µM
same,GI50,BT-549 breast,12.4 µM
same,TGI,BT-549 breast,32.5 µM
same,GI50,UO-31 renal,10.1 µM
same,TGI,UO-31 renal,23.4 µM
same,GI50,IGROV1 ovarian,1.87 µM
same,TGI,IGROV1 ovarian,3.72 µM
same,GI50,UACC-62 melanoma,5.5 µM
same,TGI,UACC-62 melanoma,20.1 µM
same,GI50,M14 melanoma,3.46 µM
same,TGI,M14 melanoma,13.8 µM
same,GI50,T-47D breast,2.09 µM
same,TGI,T-47D breast,5.03 µM
same,GI50,SW-620 colon,1.82 µM
same,TGI,SW-620 colon,3.68 µM
same,GI50,SK-MEL-28 melanoma,2.35 µM
same,TGI,SK-MEL-28 melanoma,5.67 µM
same,GI50,A498 renal,13.8 µM
same,TGI,A498 renal,29.3 µM
same,GI50,HT29 colon,1.71 µM
same,TGI,HT29 colon,3.67 µM
same,GI50,NCI-H226 lung,3.75 µM
same,TGI,NCI-H226 lung,16.8 µM
same,GI50,NCI/ADR-RES ovarian,2.28 µM
same,TGI,NCI/ADR-RES ovarian,5.07 µM
same,GI50,OVCAR-3 ovarian,2.08 µM
same,TGI,OVCAR-3 ovarian,4.28 µM
same,GI50,TK-10 renal,10.6 µM
same,TGI,TK-10 renal,27 µM
same,GI50,SK-MEL-2 melanoma,6.06 µM
same,TGI,SK-MEL-2 melanoma,22.5 µM
same,GI50,PC-3 prostate,1.62 µM
same,TGI,PC-3 prostate,3.59 µM
same,GI50,SN12C renal,2.3 µM
same,TGI,SN12C renal,5.45 µM
same,GI50,HCC-2998 colon,1.97 µM
same,TGI,HCC-2998 colon,3.56 µM
same,GI50,ACHN renal,3.37 µM
same,TGI,ACHN renal,12.4 µM
same,GI50,A549 NSCLC,2.15 µM
same,TGI,A549 NSCLC,4.88 µM
same,GI50,NCI-H23 lung,3.17 µM
same,GI50,CAKI-1 renal,1.85 µM
same,TGI,CAKI-1 renal,3.93 µM
same,GI50,U251 CNS,1.75 µM
same,TGI,U251 CNS,3.28 µM
same,GI50,MDA-MB-435,1.83 µM
same,TGI,MDA-MB-435,3.49 µM
same,GI50,SK-OV-3 ovarian,10.6 µM
same,TGI,SK-OV-3 ovarian,24.8 µM
same,GI50,MALME-3M melanoma,1.97 µM
same,TGI,MALME-3M melanoma,4.69 µM
same,GI50,CCRF-CEM leukemia,2.84 µM
same,TGI,CCRF-CEM leukemia,11.3 µM
same,GI50,HOP-92 NSCLC,1.5 µM
same,TGI,HOP-92 NSCLC,3.58 µM
